Results published in US10781229B2, “Tris- or neopentyl glycol-based amphiphiles and uses thereof” (Industry-University Cooperation Foundation Hanyang …, priority 2015, dated 2020).
Blank lines part the entries; values can stand above or below the molecule they belong to.

Tests used:
[1] = target: LeuT E192C^TMR (Aquifex aeolicus, UniProt O67854, E192C); test: Site-directed fluorescence (iodide) quenching of LeuT E192C-TMR, Stern-Volmer analysis; type: biochemical
Excerpt: A principle of this experiment is as follows: A cysteine residue was inserted into a 192th LeuT site (E192C), followed by coupling with a thiol-reactive fluorophore (tetramethylrhodamine-5-maleimide, TMR). The prepared LeuT E192C^TMR, as TMR-coupled LeuT, is an excellent system to sensitively monitor protein structure change in response to ligand coupling. […] Due to such change, TMR fluorescence molecules exposed to an aqueous solution become closer to iodide (I^−), as a quencher dissolved in water, whereby strong fluorescence quenching is caused. TMR quenching intensity by leucine coupling may be represented by Stern-Volmer plotting and thus structural flexibility of a protein may be directly measured. Ligand bindability of the TMR-labeled transporter was measured using SPA while increasing the amount of [^3H]leucine.
In particular, structure, expression, purification, and fluorescence labeling were performed according to the following methods. In accordance with a method disclosed in a paper published by C. B. Billesbolle, et al. (J. Biol. Chem. 2015, 290, 26725-26738), a leucine transporter mutant (LeuT E192C^TMR) was produced and purification and labeling were carried out. In summary, a residue of the E192 was mutated with cysteine using QuikChange (Agilent Technologies) such that fluorescence coupling was accomplished by maleimide labeling. The LeuT mutant was expressed in E. coli C41 (DE3). A membrane of DE3 was disrupted and LeuT was solubilized with 1% (w/v) DDM. Subsequently, LeuT solubilized with the amphipathic molecule was fixed to a Chelating Sepharose Fast Flow resin (GE Healthcare, Little Chalfont, UK), followed by washing with tetramethylrhodamine-5-maleimide (TMR, Life Technologies, Carlsbad, Calif., USA) at 4° C. for 16 hours. Subsequently, LeuT was eluted with a buffer containing 300 mM imidazole, 20 mM Tris-HCl (pH 8.0), 1 mM NaCl, 199 mM KCl, and 0.05% DDM.
Fluorescence spectroscopy was carried out according to the following method. A fluorescence-based experiment was carried out by diluting 0.5 μg ml^−1 of fluorescence-labeled LeuT with buffer A supplemented with CMC+0.04% by weight of DDM, MNG-3 or NDT-C11. Leucine was separately added to specimen aliquots of LeuT for each concentration and incubated for one hour in a room temperature shaker. Steady-state fluorescence intensities were recorded with a FluoroMax4 (Horiba Scientific, Edison, N.J., USA) at λem=572 nm and excitation source at λex=552 nm at 25° C. Quencher-titration was carried out by successive additions of small specimen aliquots containing 1 M KI into buffer A supplemented with 10 mM Na2S2O3. Fluorescence intensities (F) were corrected for sample dilution and normalized to the initial intensity (F0) of a sample. All data was analyzed by linear-(Stern-Volmer plot) or nonlinear regression in GraphPad Prism 6.0 (GraphPad Software). The degree of iodide (I^−) accessibility was obtained from the following Stern-Volmer equation: F0/F=1+Ksv×[Q], where F0/F is normalized fluorescence quenching, Ksv is a Stern-Volmer constant, and [Q] is quencher concentration. When means are calculated as a log, the means are shown as pIC50 and the [s.e.m. interval] from pIC50±s.e.m.
Values of radioligand binding constants were calculated through SPA saturation binding experiments. Values of iodide quenching-response constants and ΔKSV were calculated from a site-directed fluorescence quenching spectroscopy. The affinity (Kd) is shown as means±s.e.m and ΔKSV is shown as means [s.e.m. interval]. All data is shown as means of three to four independent experiments.

[2] = Hydrodynamic radius and size distribution of micelles by dynamic light scattering (DLS); type: physicochemical
Method: A method of measuring the radius of a micelle is not specifically limited and may be any method generally known in the art. For example, the radius may be measured by a dynamic light scattering (DLS) experiment.
In particular, critical micellar concentrations (CMCs) were measured using hydrophobic fluorescence staining and diphenylhexatriene (DPH), and hydrodynamic radii (Rh) of micelles formed of each material were measured by a dynamic light scattering (DLS) experiment. Measured results are compared to values of DDM as an existing amphipathic molecule (detergent).
Meanwhile, size distributions of the micelles formed of TDTs and NDTs were measured using DLS. Results are illustrated in FIG. 5. TDTs or NDTs were respectively used in an amount of 0.5% by weight. As a result, micelles of TDTs or NDTs were measured as forming a single community.

[3] = system: leucine transporter (LeuT); test: LeuT stability by [3H]-Leu scintillation proximity assay (SPA); type: biochemical, Aquifex aeolicus; settings: CMC+0.2% by weight, room temperature
Method: Experiments to measure the structural stability of a leucine transporter (LeuT) protein by TDTs or NDTs were conducted. LeuT protein activity was measured by scintillation proximity assay (SPA) utilizing [^3H]-Leu as a ligand. The concentration of TDTs, NDTs, or DDM was (a) CMC+0.04% by weight, or (b) CMC+[…].
In particular, the LeuT stability measurement experiments were conducted according to the following methods. Depending upon the results of UapA and MelB, only TDT-C11, TDT-C12, NDT-C10, NDT-C11 and NDT-C12 among the amphipathic molecules according to the present invention were selectively used. In accordance with a method disclosed in a paper published by G. Deckert, et al. (Nature 1998, 392, 353-358), a wild-type leucine transporter (LeuT) was purified from Aquifex aeolicus. LeuT is expressed in E. coli C41 (DE3) transformed with pET16b encoding a C-terminal 8×His-tagged transporter (the expression plasmid was provided by Dr E. Gouaux, Vollum Institute, Portland, Oreg., USA). In summary, the […] protein was isolated and solubilized with 1.0% by weight of DDM, followed by binding the protein to a Ni^2+-NTA resin (Life Technologies, Denmark) and eluting the same with 20 mM Tris-HCl (pH 8.0), 1 mM NaCl, 199 mM KCl, 0.05% DDM, and 300 mM imidazole. Next, about 1.5 mg/ml of a protein stock was 10-fold diluted with a buffer in which DDM and imidazole are absent, but TDTs, NDTs, or DDM (control) is supplemented such that a final concentration becomes CMC+0.04% by weight or CMC+0.2% by weight. Protein samples were stored at room temperature and centrifuged at a predetermined time. To evaluate protein activity, [^3H]-Leu coupling was measured using scintillation proximity assay (SPA) (M. Quick et al., Proc. Natl, Acad. Sci. U.S.A. 2007, 104, 3603-3608). 5 μL of each protein sample dissolved in a buffer that contained 200 mM NaCl and each test compound was analyzed. SPA reaction was carried out in the presence of 20 nM [^3H]-Leu and copper chelate (His-Tag) YSi beads (both purchased from PerkinElmer, Denmark). [^3H]-Leu coupling was measured by means of a MicroBeta liquid scintillation counter (PerkinElmer).

[4] = target: T1, melibiose permease (MelB), MelBSt (Salmonella typhimurium, UniProt P30878); test: MelB extraction efficiency and stability by SDS-PAGE and western immunoblotting; settings: 1.5% by weight; for MelB protein solubilization effect versus temperature: 0 to 45° C. and above; for MelB protein extraction efficiency from membrane: 0° C.
T1 construct: made in house; host or cells: 'Salmonella typhimurium DW2 cell (melB and lacZY)', plasmid pK95AHB/WT MelBSt/CH10
T1 sequence (P30878 whole entry): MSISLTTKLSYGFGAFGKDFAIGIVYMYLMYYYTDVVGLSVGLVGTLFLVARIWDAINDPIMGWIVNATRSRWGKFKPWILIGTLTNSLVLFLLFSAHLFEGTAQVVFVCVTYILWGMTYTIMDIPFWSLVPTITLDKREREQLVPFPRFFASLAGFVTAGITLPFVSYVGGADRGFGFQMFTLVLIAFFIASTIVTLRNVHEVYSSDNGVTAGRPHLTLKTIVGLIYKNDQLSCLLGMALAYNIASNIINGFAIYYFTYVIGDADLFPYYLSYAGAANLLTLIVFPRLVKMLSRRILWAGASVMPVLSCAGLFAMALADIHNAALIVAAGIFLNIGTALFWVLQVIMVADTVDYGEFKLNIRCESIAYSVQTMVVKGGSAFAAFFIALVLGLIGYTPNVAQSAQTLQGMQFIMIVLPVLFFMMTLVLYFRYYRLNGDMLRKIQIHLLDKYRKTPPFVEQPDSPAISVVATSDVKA
Method: Experiments to measure the extraction efficiency and structural stability of a Salmonella typhimurium melibiose permease (MelB) protein by TDTs or NDTs were conducted. The MelB protein was extracted using TDTs, NDTs, or DDM and then the amounts and structures of extracted proteins were quantitatively analyzed by SDS-PAGE and western immunoblotting. The concentrations of the used amphipathic molecules were 1.5% by weight. Protein extraction was carried out at four temperatures (0, 45, 55 or 65° C.) for 90 minutes to simultaneously evaluate the protein extraction efficiency and stabilization ability of the amphipathic molecules.
In particular, in accordance with a method disclosed in a paper (P. S. Chae, et al., Chemistry. 2013, 19, 15645-15651) published by the present inventors, a protein (MelBSt) was produced using a pK95AHB/WT MelBSt/CH10 plasmid and a Salmonella typhimurium DW2 cell (melB and lacZY) to encode wild-type MelB having a 10-His tag at a C-terminal. In accordance with a method disclosed in a paper (Nat. Commun. 2014, 5, 3009) published by A. S. Ethayathulla, et al., cell proliferation and membrane preparation was carried out. Protein analysis was performed using a Micro BCA kit (Thermo Scientific, Rockford, Ill.). So as to measure the solubilization/stability of MelBSt, a membrane sample including MelBSt (final protein concentration of 10 mg/mL) was mixed with a solubilization buffer (20 mM sodium phosphate, pH 7.5, 200 mM NaCl, 10% glycerol, and 20 mM melibiose) and 1.5% (w/v) DDM, TDTs or NDTs. An extracted product was incubated at four temperatures (0, 45, 55 and 65° C.) for 90 minutes. Ultracentrifugation was carried out for 45 minutes at 4° C. and 355,590 g by means of a Beckman Optima™ MAX ultracentrifuge and a TLA-100 rotor. Subsequently, 20 μg of a protein was separated by SDS-16% PAGE and then subjected to immunoblotting with a Penta-His-HRP antibody (Qiagen, Germantown, Md.).

Rh (hydrodynamic radius of micelles) [2]: 3.1 ± 0.1 nm
Structure (SMILES): CCCCCCCCCC(CCCCCCCCC)COCC(CO[C@@H]1OC(CO)[C@@H](O)C(O)C1O)(CO[C@@H]1OC(CO)[C@@H](O)C(O)C1O)CO[C@@H]1OC(CO)[C@@H](O)C(O)C1O (stereo partly shown) [NDT-C9]

Rh (hydrodynamic radius of micelles) [2]: 3.2 ± 0.1 nm | LeuT protein stabilization ability ([3H]-Leu binding) [3]: excellent
Structure (SMILES): CCCCCCCCCCC(CCCCCCCCCC)COCC(CO[C@@H]1OC(CO)[C@@H](O)C(O)C1O)(CO[C@@H]1OC(CO)[C@@H](O)C(O)C1O)CO[C@@H]1OC(CO)[C@@H](O)C(O)C1O (stereo partly shown) [NDT-C10]

Rh (hydrodynamic radius of micelles) [2]: 4.5 ± 0.2 nm
Structure (SMILES): CCCCCCCCCCC(CCCCCCCCCC)C(=O)NC(CO[C@@H]1OC(CO)[C@@H](O)C(O)C1O)(CO[C@@H]1OC(CO)[C@@H](O)C(O)C1O)CO[C@@H]1OC(CO)[C@@H](O)C(O)C1O (stereo partly shown) [TDT-C10]

Second part, the molecule before the results:

Structure (SMILES): CCCCCCCCCCC(CCCCCCCCCC)(CO[C@@H]1O[C@H](CO)[C@@H](O[C@H]2O[C@H](CO)[C@@H](O)[C@H](O)[C@H]2O)[C@H](O)[C@H]1O)CO[C@@H]1O[C@H](CO)[C@@H](O[C@H]2O[C@H](CO)[C@@H](O)[C@H](O)[C@H]2O)[C@H](O)[C@H]1O [MNG-3]
Structural fluidity of the LeuT protein ([1]; conclusion from ΔKsv): tends to greatly limit the structural fluidity | Δ KSV ([1]; leucine-induced change of iodide accessibility of TMR, CMC+0.04% by weight detergent, means [s.e.m. interval]): 0.4 M⁻¹

Structure (SMILES): CCCCCCCCCCCCC(CCCCCCCCCCCC)COCC(CO[C@@H]1OC(CO)[C@@H](O)C(O)C1O)(CO[C@@H]1OC(CO)[C@@H](O)C(O)C1O)CO[C@@H]1OC(CO)[C@@H](O)C(O)C1O (stereo partly shown) [NDT-C12]
Rh (hydrodynamic radius of micelles) [2]: 3.8 ± 0.4 nm | MelB protein solubilization effect versus temperature [4]: increase with elevating temperature | MelB protein extraction efficiency from membrane ([4]; 90 minutes): Slightly decreased solubilization effects | LeuT protein stabilization ability ([3H]-Leu binding) [3]: excellent

Structure (SMILES): CCCCCCCCCC(CCCCCCCCC)C(=O)NC(CO[C@@H]1OC(CO)[C@@H](O)C(O)C1O)(CO[C@@H]1OC(CO)[C@@H](O)C(O)C1O)CO[C@@H]1OC(CO)[C@@H](O)C(O)C1O (stereo partly shown) [TDT-C9]
Rh (hydrodynamic radius of micelles) [2]: 3.4 ± 0.4 nm

Structure (SMILES): CCCCCCCCCCCC(CCCCCCCCCCC)C(=O)NC(CO[C@@H]1OC(CO)[C@@H](O)C(O)C1O)(CO[C@@H]1OC(CO)[C@@H](O)C(O)C1O)CO[C@@H]1OC(CO)[C@@H](O)C(O)C1O (stereo partly shown) [TDT-C11]
Rh (hydrodynamic radius of micelles) [2]: 37 ± 8.0 nm | Amount of MelB protein dissolved ([4]; 55° C., 90 minutes): 65%

Structure (SMILES): CCCCCCCCCCCCC(CCCCCCCCCCCC)C(=O)NC(CO[C@@H]1OC(CO)[C@@H](O)C(O)C1O)(CO[C@@H]1OC(CO)[C@@H](O)C(O)C1O)CO[C@@H]1OC(CO)[C@@H](O)C(O)C1O (stereo partly shown) [TDT-C12]
Rh (hydrodynamic radius of micelles) [2]: 53 ± 1.2 nm | MelB protein solubilization effect versus temperature [4]: increase with elevating temperature | MelB protein extraction efficiency from membrane ([4]; 90 minutes): Slightly decreased solubilization effects
